# Source: US12146004B2, “Polymyxin compounds and uses thereof” (priority 2014, dated 2024)
# Where two headings read alike, the source gives them in different places. Numbered stars: 1 amine (or outer) side, 2 acyl side, 3 side chain; on linkers, the order of the positions; unused ones are H or OH. Bridge positions count the residues as written; N and C are the ends. Square brackets hold non-standard residues; d marks the D form. Peptide text beside a SMILES is read from it. * marks the point of attachment. ξ: configuration not given here. X12 = O=C([C@@H](Cc1ccc(C2CCCCC2)cc1)N[*:1])[*:2]; dCha = N[C@H](CC1CCCCC1)C(=O)O; Thr(3ξ) = CC(O)[C@H](N)C(=O)O; X8 = NCC(C(=O)*)C1CCCCC1; Dab = NCC[C@H](N)C(=O)O; Dap = NC[C@H](N)C(=O)O; X2 = CC(C)CC(CN)C(=O)*
# Tests used:
# Type in all cases: cell-based
# Acinetobacter baumannii = tested on: Acinetobacter baumannii
# Outline: (§1)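 Values are minimum inhibitory concentrations, reported in μg/mL. Compounds were tested for susceptibility against up to nine strains per organism, including resistant isolates.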
# Escherichia coli = tested on: Escherichia coli
# Outline: as §1
# Klebsiella pneumoniae = tested on: Klebsiella pneumoniae
# Outline: as §1
# Pseudomonas aeruginosa = tested on: Pseudomonas aeruginosa
# Outline: as §1
# HK-2 cells = tested on: HK-2 cells
# Text: Values are reported relative to Polymyxin B.
Structure (SMILES),MIC A. baumanii 053 (Acinetobacter baumannii),MIC A. baumanii 056 (Acinetobacter baumannii),MIC A. baumanii ATCC BAA-747 (Acinetobacter baumannii),MIC A. baumanii NCTC 13424 (Acinetobacter baumannii),MIC E. coli 058 (Escherichia coli),MIC E. coli 061 (Escherichia coli),MIC E. coli ATCC 25922 (Escherichia coli),MIC E. coli NCTC 9001 (Escherichia coli),MIC K. pneumoniae 063 (Klebsiella pneumoniae),MIC K. pneumoniae 065 (Klebsiella pneumoniae),MIC K. pneumoniae ATCC 4352 (Klebsiella pneumoniae),MIC P. aeruginosa 068 (Pseudomonas aeruginosa),MIC P. aeruginosa 070 (Pseudomonas aeruginosa),MIC P. aeruginosa ATCC 27853 (Pseudomonas aeruginosa),MIC P. aeruginosa CCUG 59347 (Pseudomonas aeruginosa),HK-2 IC50 (HK-2 cells),MIC K. pneumoniae ATCC 13882 (Klebsiella pneumoniae),further results
"CC(C)C[C@@H]1NC(=O)[C@@H](CC2CCCCC2)NC(=O)[C@H](CCN)NC(=O)[C@@H](NC(=O)[C@H](CN)NC(=O)[C@@H](NC(=O)C(CN)C2CCCCC2)C(C)O)CCNC(=O)[C@H]([C@@H](C)O)NC(=O)[C@H](CCN)NC(=O)[C@H](CCN)NC1=O (stereo partly drawn) [Example 28, 3-Amino-2-cyclohexylpropanoyl L-Thr-L-Dap-polymyxin [D-cyclohexylalanine]-6 heptapeptide] (X8-[Thr(3ξ)][Dap][Dab][Dab][dCha]L[Dab][Dab]T; lactam 3-C)",16 µg/mL,4 µg/mL,0.06 µg/mL,0.125 µg/mL,1 µg/mL,8 µg/mL,0.25 µg/mL,0.125 µg/mL,8 µg/mL,1 µg/mL,0.125 µg/mL,4 µg/mL,4 µg/mL,0.25 µg/mL,0.5 µg/mL,86 µg/mL,–,–
"CC(C)Cc1ccc(C[C@H]2NC(=O)[C@H](CCN)NC(=O)[C@@H](NC(=O)[C@H](CN)NC(=O)[C@@H](NC(=O)C3CNCC(CC(C)C)C3)C(C)O)CCNC(=O)[C@H]([C@@H](C)O)NC(=O)[C@H](CCN)NC(=O)[C@H](CCN)NC(=O)[C@H](CC(C)C)NC2=O)cc1 (single isomer, unassigned; isomer 2) [Example 25, (Ttrans-5-(isobutyl-piperidine)-3-carbonyl L-Thr-L-Dap-polymyxin [D-(4-isobutyl Phe)]-6]heptapeptide isomer 2]",–,–,0.5 µg/mL,0.5 µg/mL,1 µg/mL,0.5 µg/mL,0.5 µg/mL,–,2 µg/mL,1 µg/mL,0.25 µg/mL,1 µg/mL,1 µg/mL,1 µg/mL,2 µg/mL,20 µg/mL,–,–
"CC(C)CC1CNCC(C(=O)N[C@H](C(=O)N[C@@H](CN)C(=O)N[C@H]2CCNC(=O)[C@H]([C@@H](C)O)NC(=O)[C@H](CCN)NC(=O)[C@H](CCN)NC(=O)[C@H](CC(C)C)NC(=O)[C@@H](Cc3ccc(-c4ccccc4)cc3)NC(=O)[C@H](CCN)NC2=O)C(C)O)C1 (single isomer, unassigned; isomer 1) [Example 3, (trans-5-(isobutyl-piperidine)-3-carbonyl L-Thr-L-Dap-polymyxin [D-(4-phenyl)Phe]-6] heptapeptide. Isomer 1]",64 µg/mL,4 µg/mL,2 µg/mL,–,8 µg/mL,32 µg/mL,0.5 µg/mL,–,>64 µg/mL,32 µg/mL,0.5 µg/mL,4 µg/mL,4 µg/mL,1 µg/mL,–,34 µg/mL,–,MIC E. coli 059 (Escherichia coli): 8 µg/mL; MIC E. coli 060 (Escherichia coli): 16 µg/mL; MIC K. pneumoniae 062 (Klebsiella pneumoniae): >64 µg/mL; MIC K. pneumoniae 064 (Klebsiella pneumoniae): 32 µg/mL; MIC K. pneumoniae 067 (Klebsiella pneumoniae): >64 µg/mL
"CC(C)C[C@@H]1NC(=O)[C@@H](CC2CCCCC2)NC(=O)[C@H](CCN)NC(=O)[C@@H](NC(=O)[C@H](CN)NC(=O)[C@@H](NC(=O)C(CN)Cc2ccccc2)C(C)O)CCNC(=O)[C@H]([C@@H](C)O)NC(=O)[C@H](CCN)NC(=O)[C@H](CCN)NC1=O (single isomer, unassigned; isomer 2) [Example 34, 3-amino-2-benzylpropanoyl L-Thr-L-Dap-polymyxin [D-cyclohexylalanine]-6 heptapeptide. Isomer 2]",32 µg/mL,16 µg/mL,0.125 µg/mL,0.06 µg/mL,2 µg/mL,16 µg/mL,0.25 µg/mL,0.125 µg/mL,32 µg/mL,4 µg/mL,0.125 µg/mL,4 µg/mL,4 µg/mL,0.25 µg/mL,0.25 µg/mL,99 µg/mL,0.125 µg/mL,–
"CC(C)C[C@@H]1NC(=O)[C@@H](CC2CCCCC2)NC(=O)[C@H](CCN)NC(=O)[C@@H](NC(=O)[C@H](CN)NC(=O)[C@@H](NC(=O)CC(N)C2CCCCC2)C(C)O)CCNC(=O)[C@H]([C@@H](C)O)NC(=O)[C@H](CCN)NC(=O)[C@H](CCN)NC1=O (single isomer, unassigned; isomer 1) [Example 32, 3-amino-3-cyclohexylpropanoyl L-Thr-L-Dap-polymyxin [D-cyclohexylalanine]-6 heptapeptide. Isomer 1]",–,64 µg/mL,0.25 µg/mL,0.06 µg/mL,2 µg/mL,16 µg/mL,0.25 µg/mL,0.125 µg/mL,16 µg/mL,–,0.06 µg/mL,4 µg/mL,4 µg/mL,0.5 µg/mL,0.5 µg/mL,73 µg/mL,0.25 µg/mL,–
"CC(C)CC(CN)C(=O)N[C@H](C(=O)N[C@@H](CN)C(=O)N[C@H]1CCNC(=O)[C@H]([C@@H](C)O)NC(=O)[C@H](CCN)NC(=O)[C@H](CCN)NC(=O)[C@H](CC(C)C)NC(=O)[C@@H](Cc2ccc(C3CCCCC3)cc2)NC(=O)[C@H](CCN)NC1=O)C(C)O (stereo partly drawn) [Example 27, 2-(Aminomethyl)-4-methylpentanoyl L-Thr-L-Dap-polymyxin [D-(4-cyclohexyl Phe)]-6 heptapeptide] (X2-[Thr(3ξ)][Dap][Dab][Dab][X12]L[Dab][Dab]T; lactam 3-C)",8 µg/mL,4 µg/mL,0.5 µg/mL,0.25 µg/mL,2 µg/mL,8 µg/mL,0.5 µg/mL,0.5 µg/mL,8 µg/mL,0.5 µg/mL,0.25 µg/mL,4 µg/mL,2 µg/mL,0.5 µg/mL,1 µg/mL,18 µg/mL,–,–
"CC(C)C[C@@H]1NC(=O)[C@@H](CC2CCCCC2)NC(=O)[C@H](CCN)NC(=O)[C@@H](NC(=O)[C@H](CN)NC(=O)[C@@H](NC(=O)CC(N)C2CCCCC2)C(C)O)CCNC(=O)[C@H]([C@@H](C)O)NC(=O)[C@H](CCN)NC(=O)[C@H](CCN)NC1=O (single isomer, unassigned; isomer 2) [Example 33, 3-amino-3-cyclohexylpropanoyl L-Thr-L-Dap-polymyxin [D-cyclohexylalanine]-6 heptapeptide. Isomer 2]",64 µg/mL,32 µg/mL,0.25 µg/mL,0.125 µg/mL,2 µg/mL,16 µg/mL,0.25 µg/mL,0.125 µg/mL,64 µg/mL,2 µg/mL,0.03 µg/mL,8 µg/mL,8 µg/mL,0.25 µg/mL,0.5 µg/mL,75 µg/mL,0.5 µg/mL,–
"CC(C)C[C@@H]1NC(=O)[C@@H](CC2CCCCC2)NC(=O)[C@H](CCN)NC(=O)[C@@H](NC(=O)[C@H](CCN)NC(=O)[C@@H](NC(=O)CC(CN)Cc2ccccc2)[C@@H](C)O)CCNC(=O)[C@H]([C@@H](C)O)NC(=O)[C@H](CCN)NC(=O)[C@H](CCN)NC1=O (single isomer, unassigned; isomer 2) [Example 67, 4-amino-3-benzylbutanoyl polymyxin [D-cyclohexylalanine]-6 nonapeptide isomer 2]",–,–,–,–,–,–,–,–,–,–,–,–,–,–,–,–,–,MIC A. baumanii 053 (Acinetobacter baumannii; strain 053): 64 µg/mL; MIC A. baumanii 056 (Acinetobacter baumannii; strain 056): 16 µg/mL; MIC A. baumanii ATCC BAA-747 (Acinetobacter baumannii; strain ATCC BAA-747): 0.25 µg/mL; MIC A. baumanii NCTC 13424 (Acinetobacter baumannii; strain NCTC 13424): 0.25 µg/mL; MIC E. coli 058 (Escherichia coli; strain 058): 4 µg/mL; MIC E. coli 061 (Escherichia coli; strain 061): 16 µg/mL; MIC E. coli ATCC 25922 (Escherichia coli; strain ATCC 25922): 0.125 µg/mL; MIC E. coli NCTC 9001 (Escherichia coli; strain NCTC 9001): 0.06 µg/mL; MIC K. pneumoniae 063 (Klebsiella pneumoniae; strain 063): 32 µg/mL; MIC K. pneumoniae 065 (Klebsiella pneumoniae; strain 065): 1 µg/mL; MIC K. pneumoniae ATCC 13882 (Klebsiella pneumoniae; strain ATCC 13882): 0.25 µg/mL; MIC P. aeruginosa 068 (Pseudomonas aeruginosa; strain 068): 8 µg/mL; MIC P. aeruginosa 070 (Pseudomonas aeruginosa; strain 070): 16 µg/mL; MIC P. aeruginosa ATCC 27853 (Pseudomonas aeruginosa; strain ATCC 27853): 0.25 µg/mL; MIC P. aeruginosa CCUG 59347 (Pseudomonas aeruginosa; strain CCUG 59347): 0.25 µg/mL; HK-2 IC50 (HK-2 cells; HK-2 cells): 60 µg/mL
